Target: Ras-related C3 botulinum toxin substrate 1 (Mus musculus, UniProt P63001)
Experiment: wildtype Rac1 GTP binding inhibitors, dose response, biochemical, multiplex bead flow cytometry (AID 1340)

Row | SMILES | EC50 [nM]
1 | O=C(O)c1ccccc1Sc1ncnc2sc3c(c12)CCC3 | 1220
2 | COc1cc(CN=Nc2nnc3c(n2)[nH]c2ccccc23)ccc1O | 634
3 | CN1C(=O)N(C)c2ccc(C=O)c3cccc1c23 [1,3-dimethyl-2-oxidanylidene-perimidine-6-carbaldehyde] | 20800
4 | CCCc1nc2c(=O)n(C)c(=O)nc-2n(C)n1 [1,6-dimethyl-3-propyl-pyrimido[5,4-e][1,2,4]triazine-5,7-dione] | 623
5 | O=C(O)c1cn(CCOc2ccccc2)c2ccccc12 [1-(2-phenoxyethyl)-3-indolecarboxylic acid] | 5440
6 | O=C(C#Cc1ccccc1)c1cccc([N+](=O)[O-])c1 [1-(3-nitrophenyl)-3-phenyl-2-propyn-1-one] | 19200
7 | Cc1ccc(C)c(OCCn2cc(C(=O)O)c3ccccc32)c1 [1-[2-(2,5-dimethylphenoxy)ethyl]-3-indolecarboxylic acid] | 802
8 | OC(CNCCc1ccc(Cl)cc1)COc1ccc2ccccc2c1 (configuration not stated) [1-[2-(4-chlorophenyl)ethylamino]-3-(2-naphthalenyloxy)-2-propanol] | 7190
9 | CC(=O)c1c(C)[nH]c(C(=O)N2CCc3ccccc3C2)c1C [1-[5-(3,4-dihydro-1H-isoquinolin-2-ylcarbonyl)-2,4-dimethyl-1H-pyrrol-3-yl]ethanone] | 5130
10 | O=C(NNC(=S)NCc1ccc(Cl)cc1)c1ccc(Br)o1 [1-[(5-bromanylfuran-2-yl)carbonylamino]-3-[(4-chlorophenyl)methyl]thiourea] | 85.7
11 | Cc1cc(C)c(C)c(C(=O)c2ccccc2C(=O)O)c1C [2-(2,3,5,6-tetramethylbenzoyl)benzoic acid] | 2240
12 | Cc1cc(C(=O)Oc2ccccc2C(=O)O)c(C)o1 [2-(2,5-dimethyl-3-furoyl)oxybenzoic acid] | 102
13 | O=C(O)c1ccccc1OCc1ccccc1Br [2-(2-bromobenzyl)oxybenzoic acid] | 151
14 | CC1(C)Cc2c(sc(NC(=S)NC(=O)c3ccccc3)c2C(=O)O)CO1 [2-(benzoylcarbamothioylamino)-5,5-dimethyl-4,7-dihydrothieno[2,3-c]pyran-3-carboxylic acid] | 80.6
15 | O=C(O)c1ccccc1NCCc1ccc(Cl)cc1 [2-[2-(4-chlorophenyl)ethylamino]benzoic acid] | 1520
16 | CC(C)C(NCc1c(Cl)cccc1Cl)C(=O)O (configuration not stated) [2-[(2,6-dichlorobenzyl)amino]-3-methyl-butyric acid] | 5800
17 | O=C(O)c1ccccc1NCc1ccccc1Cl [2-[(2-chlorobenzyl)amino]benzoic acid] | 899
18 | Cc1cc(NC(=O)CSc2nc(O)c(C#N)c(-c3ccccc3)n2)no1 [2-[(5-cyano-4-oxidanylidene-6-phenyl-1H-pyrimidin-2-yl)sulfanyl]-N-(5-methyl-1,2-oxazol-3-yl)ethanamide] | 9540
19 | N#Cc1c(-c2ccccc2)nc(SCC(=O)Nc2ccccc2)[nH]c1=O [2-[(5-cyano-4-oxo-6-phenyl-1H-pyrimidin-2-yl)thio]-N-phenylacetamide] | 3540
20 | COc1ccc(-c2nnc(SCC(=O)c3cccs3)o2)cc1 [2-[[5-(4-methoxyphenyl)-1,3,4-oxadiazol-2-yl]sulfanyl]-1-thiophen-2-yl-ethanone] | 6390
21 | COc1cc(C=NNC(=O)c2sc(N)nc2C)cc(OC)c1OC [2-amino-4-methyl-N-[(3,4,5-trimethoxyphenyl)methylideneamino]-5-thiazolecarboxamide] | 1670
22 | Cc1cc(C(=O)Cn2nc(C(=O)O)c3ccccc3c2=O)c(C)n1-c1ccc(OC(F)F)cc1 [3-[2-[1-[4-(difluoromethoxy)phenyl]-2,5-dimethyl-3-pyrrolyl]-2-oxoethyl]-4-oxo-1-phthalazinecarboxylic acid] | 5900
23 | O=C(O)CCN1C(=O)/C(=C/c2ccc(-c3nc4ccccc4s3)o2)SC1=S [3-[(5Z)-5-[[5-(1,3-benzothiazol-2-yl)furan-2-yl]methylidene]-4-oxo-2-sulfanylidene-1,3-thiazolidin-3-yl]propanoic acid] | 976
24 | CCn1nc(C(=O)OCC(=O)c2cc(C)n(Cc3cccs3)c2C)c2ccccc2c1=O [3-ethyl-4-keto-phthalazine-1-carboxylic acid [2-[2,5-dimethyl-1-(2-thenyl)pyrrol-3-yl]-2-keto-ethyl] ester] | 892

Row | SMILES | EC50 [nM]
25 | CCOC(=O)c1nc(Nc2ccc(C(C)=O)cc2)c2ccccc2n1 [4-(4-acetylanilino)-2-quinazolinecarboxylic acid ethyl ester] | 3400
26 | COc1ccc(C(=O)CC=Nc2ccc(S(=O)(=O)Nc3nc(C)cc(C)n3)cc2)cc1OC [4-[3-(3,4-Dimethoxy-phenyl)-3-oxo-propenylamino]-N-(4,6-dimethyl-pyrimidin-2-yl)-benzenesulfonamide] | 3120
27 | CC(C)Oc1ccc(C=NNC(=O)c2ccc(N(Cc3ccccc3)S(C)(=O)=O)cc2)cc1 [4-[benzyl(mesyl)amino]-N-[(4-isopropoxybenzylidene)amino]benzamide] | 5170
28 | COc1ccccc1NCc1sc(C(=O)O)cc1C [4-methyl-5-(o-anisidinomethyl)-2-thenoic acid] | 16000
29 | O=C(O)c1ccc(COc2ccccc2Cl)o1 [5-[(2-chloranylphenoxy)methyl]furan-2-carboxylic acid] | 26300
30 | COc1ccc(Cl)cc1NCc1sc(C(=O)O)cc1C [5-[(5-chloro-2-methoxy-anilino)methyl]-4-methyl-2-thenoic acid] | 1820
31 | Cc1cccc(-n2nc(CC#N)c(C#N)c2N)c1 [5-amino-3-(cyanomethyl)-1-(3-methylphenyl)-4-pyrazolecarbonitrile] | 28400
32 | Cc1sc2nc3ccc(NCc4ccco4)nn3c(=O)c2c1C [7-(2-furanylmethylamino)-2,3-dimethyl-4-thieno[1,2]pyrimido[4,5-b]pyridazinone] | 9210
33 | CCN(CC)c1ccc2cc(-c3nc(-c4ccc(OC)cc4)cs3)c(=O)oc2c1 [7-(diethylamino)-3-[4-(4-methoxyphenyl)-1,3-thiazol-2-yl]chromen-2-one] | 372
34 | O=C1/C(=C\c2cccnc2)Sc2ccccc21 [(2E)-2-(3-pyridinylmethylidene)-1-benzothiophen-3-one] | 93100
35 | Cc1cc(C)cc(N=Cc2[nH]c3ccc(Br)c(Cl)c3c2O)c1 [(2Z)-5-bromo-4-chloro-2-[(3,5-dimethylanilino)methylidene]-1H-indol-3-one] | 3030
36 | CCOc1ccc(/C=C2\SC(N3CCc4ccccc4C3)=NC2=O)cc1 [(5Z)-2-(3,4-dihydro-1H-isoquinolin-2-yl)-5-(4-ethoxybenzylidene)-2-thiazolin-4-one] | 4020
37 | O=C(O)/C=C/c1cn(Cc2ccccc2)nc1-c1cccs1 [(E)-3-(1-benzyl-3-thiophen-2-ylpyrazol-4-yl)prop-2-enoic acid] | 2280
38 | O=C(O)/C=C/c1cn(Cc2ccccc2)nc1-c1ccc(Cl)cc1 [(E)-3-[1-benzyl-3-(4-chlorophenyl)pyrazol-4-yl]acrylic acid] | 164
39 | O=C(Nc1nc(-c2ccc(S(=O)(=O)N3CCCC3)cc2)cs1)c1ccco1 [MLS000049286] | 1760
40 | O=C(COc1ncnc2cc([N+](=O)[O-])ccc12)NCCc1ccc(Cl)cc1 [MLS000335629] | 5410
41 | O=C(NC1CCCCC1)c1cc([N+](=O)[O-])n[nH]1 [MLS000559279] | 55300
42 | Cc1ccccc1C(=O)Nc1ccc2c(C#N)c3nc4ccccc4nc3n2c1 [MLS000591720] | 291
43 | N=C(N)NS(=O)(=O)c1ccc(NC(=S)NC(=O)c2ccc3c(c2)OCO3)cc1 [MLS000621545] | 2800
44 | COCCn1c(=S)[nH]c2cc(C(=O)N3CCc4ccccc4C3)ccc2c1=O [SMR000310652] | 605
45 | COc1cc(SC#N)ccc1N=Cc1c(C)[nH]n(-c2ccc(C)c(C)c2)c1=O [[4-[[(Z)-[1-(3,4-dimethylphenyl)-3-methyl-5-oxidanylidene-pyrazol-4-ylidene]methyl]amino]-3-methoxy-phenyl] thiocyanate] | 966
46 | NC(=S)NNC1=c2cc(F)ccc2=NC1=O [[(5-fluoro-2-oxoindol-3-yl)amino]thiourea] | 3460
47 | CCOC(=O)CN(C(=O)CSc1nnc2c(n1)[nH]c1ccc(OC)cc12)c1ccc(F)cc1 [ethyl 2-[(4-fluorophenyl)-[2-[(8-methoxy-5H-[1,2,4]triazino[5,6-b]indol-3-yl)sulfanyl]ethanoyl]amino]ethanoate] | 923

Source: BindingDB's records for doi:10.7270/Q2377749 (Nmmlsc, 2010)
